target: T1, human CXCR3 (N-delta 4) (Homo sapiens, UniProt P49682); assay: Human CXCR3 (N-delta 4) Scintillation Proximity Assay (SPA), [125I] IP-10 binding; conditions: IC50 rating; [125I] IP-10 displacement, Ba/F3-hCXCR3 (N-delta 4) membranes
T1 construct: CD8 leader (N); Flag tag; expressed in transfected cells; membranes
T1 sequence (P49682 5-368 limits assumed): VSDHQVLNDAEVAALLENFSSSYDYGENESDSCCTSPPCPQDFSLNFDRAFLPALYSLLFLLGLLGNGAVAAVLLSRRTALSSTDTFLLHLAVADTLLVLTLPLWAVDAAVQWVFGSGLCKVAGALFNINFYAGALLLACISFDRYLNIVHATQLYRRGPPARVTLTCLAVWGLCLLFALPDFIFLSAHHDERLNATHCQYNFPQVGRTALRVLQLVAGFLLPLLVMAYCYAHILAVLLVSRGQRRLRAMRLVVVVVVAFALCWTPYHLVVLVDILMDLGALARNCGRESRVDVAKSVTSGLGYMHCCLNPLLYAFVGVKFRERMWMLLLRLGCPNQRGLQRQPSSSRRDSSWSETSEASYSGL
Procedure, shortened: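 Membranes from Ba/F3 cells stably expressing Flag-tagged human CXCR3 (N-delta 4), 2 μg per point, precoupled 1 h to WGA SPA beads in HEPES buffer with CaCl2, MgCl2, NaCl, 1.0% BSA. Compounds titrated with 25 pM [125I] IP-10; bound label counted after 3 hr at room temperature.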

| IC50 [µM] | Compound |
| --- | --- |
| < 0.025 | CC[C@H]1CN(c2ncc(-c3ncc[nH]3)cc2Cl)CCN1C1CCN(Cc2ccc(Cl)cc2C(=O)OC)CC1 [Compound 50] |
| < 0.025 | CC[C@H]1CN(c2ncc(C3=NCCN3)cc2Cl)CCN1C1CCN(C(=O)c2ccc(Cl)cc2C(N)=NO)CC1 [Compound 93] |
| 0.025 to 0.1 | CC[C@H]1CN(c2ncc(C3=NCCN3)cc2Cl)CCN1C1CCN(Cc2ccc(C#CC(C)(C)NS(N)(=O)=O)cc2)CC1 [Compound 131] |
| < 0.025 | CC[C@H]1CN(c2ncc(-c3ncc[nH]3)cc2Cl)CCN1C1CCN(Cc2ccc(Br)cc2)CC1 [Compound 2] |
| > 0.1 | CC[C@H]1CN(c2ncc(-c3ncc[nH]3)cc2Cl)CCN1C1CCN(Cc2ccc(C#CC(C)(C)NS(=O)(=O)NC(=O)OC(C)(C)C)cc2)CC1 [Compound 143] |
| < 0.025 | Fc1cc(Cl)ccc1CN1CCC(N2CCN(c3ncc(-c4ncc[nH]4)cc3Cl)CC2C2CC2)CC1 (stereo not shown) [Compound 77] |
| < 0.025 | CC[C@H]1CN(c2ncc(-c3nc(C(O)C(F)(F)F)c[nH]3)cc2Cl)CCN1C1CCN(Cc2ccc(Cl)cc2F)CC1 (stereo partly shown) [Compound 80] |
| < 0.025 | CC[C@H]1CN(c2ncc(-c3ncc[nH]3)cc2Cl)CCN1C1CCN(Cc2ccc(Cl)cc2C(=O)NN)CC1 [Compound 60] |
| 0.025 to 0.1 | CC[C@H]1CN(c2ncc(-c3cnco3)cc2Cl)CCN1C1CCN(Cc2ccc(Cl)cc2)CC1 [Compound 108] |
| < 0.025 | CC[C@H]1CN(c2ncc(C3=NCCN3)cc2Cl)CCN1C1CCN(C(=O)c2ccc(Cl)cc2)CC1 [Compound 58] |
| 0.025 to 0.1 | CC[C@H]1CN(c2ncc(-c3nnc(CO)o3)cc2Cl)CCN1C1CCN(Cc2ccc(Cl)cc2F)CC1 [Compound 106] |
| < 0.025 | CC[C@H]1CN(c2ncc(C3=NCCN3)cc2Cl)CCN1C1CCN(C(=O)c2ccc(Cl)cc2C#N)CC1 [Compound 82] |

Continued, compound first:

| Compound | IC50 [µM] |
| --- | --- |
| CC[C@H]1CN(c2ncc(-c3ncc[nH]3)cc2Cl)CCN1C1CCN(C(=O)c2ccc(Cl)cc2I)CC1 [Compound 86] | < 0.025 |
| CC[C@H]1CN(c2ncc(C3=NCCN3)cc2Cl)CCN1C1CCN(Cc2ccc(Cl)cc2C#N)CC1 [Compound 51] | < 0.025 |
| CC[C@H]1CN(c2ncc(-c3ncc[nH]3)cc2Cl)CCN1C1CCN(C(=O)c2ccc(-n3ccnc3)cc2)CC1 [Compound 156] | > 0.1 |
| CC[C@H]1CN(c2ncc(-c3ncc[nH]3)cc2Cl)CCN1C1CCN([C@@H](C(=O)NC)c2ccc(Cl)cc2)CC1 [Compound 66] | < 0.025 |
| CC[C@H]1CN(c2ncc(C3=NCCN3)cc2Cl)CCN1C1CCN(C(=O)c2ccc(Cl)nc2N)CC1 [Compound 42] | < 0.025 |
| CC[C@H]1CN(c2ncc(-c3ncc[nH]3)cc2Cl)CCN1C1(C)CCN(C(CO)c2ccc(Cl)cc2)CC1 (stereo partly shown) [Compound 38] | < 0.025 |
| CC[C@H]1CN(c2ncc(-c3nc(C(O)C(F)(F)F)c[nH]3)cc2Cl)CCN1C1CCN(C(=O)c2ccc(Cl)cc2)CC1 (stereo partly shown) [Compound 125] | 0.025 to 0.1 |
| CC[C@H]1CN(c2ncc(-c3nnc(N)o3)cc2C)[C@H](C)CN1C1CCN(Cc2ccc(OC(F)(F)F)cc2)CC1 [Compound 174] | < 0.025 |
| CC[C@H]1CN(c2ncc(C3NC(=O)NC3=O)cc2Cl)CCN1C1CCN(Cc2ccc(Cl)cc2)CC1 (stereo partly shown) [Compound 119] | 0.025 to 0.1 |
| CC[C@H]1CN(c2ncc(-c3ncc[nH]3)cc2Cl)CCN1[C@@H]1CCN(Cc2ccc(Cl)cc2C(=O)NC)C[C@H]1O [Compound 170] | > 0.1 |
| CC[C@H]1CN(c2ncc(-c3ncc[nH]3)cc2Cl)CCN1C1CCN([C@H](C(=O)NC2CC2)c2ccc(Cl)cc2)CC1 [Compound 149] | > 0.1 |
| CC[C@H]1CN(c2ncc(-c3ncc[nH]3)cc2Cl)CCN1C1CCN([C@@H](C(=O)OC)c2ccc(Cl)cc2)CC1 [Compound 35] | < 0.025 |
| CC[C@H]1CN(c2ncc(-c3cncn3C)cc2Cl)CCN1C1CCN(Cc2ccc(Cl)cc2)CC1 [Compound 115] | 0.025 to 0.1 |
| CC[C@H]1CN(c2ncc(C3=NCCN3)cc2Cl)CCN1C1CCN(Cc2ccc(C#CCOC)cc2)CC1 [Compound 34] | < 0.025 |
| CC[C@H]1CN(c2ncc(C3=NCCN3)cc2Cl)CCN1C1CCN(C(=O)c2ccc(C#N)cc2)CC1 [Compound 87] | < 0.025 |
| CC[C@H]1CN(c2ncc(-c3ncc[nH]3)cc2Cl)CCN1C1CCN(C(=O)c2ccc(C(C)=O)cc2)CC1 [Compound 111] | 0.025 to 0.1 |

Source: patent US7417045B2, “Heterocyclic substituted pyridine or phenyl compounds with CXCR3 antagonist activity” (Schering Corporation, priority 2005, dated 2008)
